Patent US10730863B2, “Bridged bicyclic compounds as farnesoid X receptor modulators” (BRISTOL-MYERS SQUIBB COMPANY, priority 2017, dated 2020)
pEC50: −log10 of the molar value.

Each compound was assayed against FXR (Homo sapiens (Human), UniProt Q96RI1) (assay: transient human FXR/Gal4-luciferase reporter assay). Conditions: Gal4-hFXR LBD fusion in HEK293 reporter cells; relative to 8 μM GW-4064.
Assay type: cell-based
Description: The exemplified compounds of the present invention were tested in the transient human FXR/Gal4-luciferase reporter assay, and assay results were described in the EXAMPLES section hereinbefore.
A Gal4-hFXR fusion construct reporter system was used as the primary assay to characterize compound activity. A construct including 5 copies of the Gal4 promoter response element upstream of a firefly luciferase reporter cDNA was stably expressed in HEK293 cells. This reporter cell line was maintained in Dulbecco's Modified Eagle's medium (DMEM; Gibco) supplemented with 1% penicillin-streptomycin (P/S) solution, 500 μg/ml Zeocin and 10% charcoal/dextran-treated fetal bovine serum (cs-FBS) at 37° C. in a humidified 5% CO2 atmosphere. Another plasmid was constructed in which the human cytomegalovirus promoter in the pcDNA3.1 vector directs the expression of the cDNA encoding a fusion protein comprised of the DNA binding domain from the Gal4 transcription factor fused to the ligand binding domain from human FXR.
The day prior to transfection, the reporter cells in culture are detached from the plate with trypsin and plated into a T75 flask at a sufficient density to achieve approximately 90% confluence the next morning. The transfection reagents are prepared by separately diluting 25 μg of the pcDNA3.1-Gal4-FXR plasmid into 1.87 mL of Opti-MEM (Thermo-Fisher), and 40 μL of Lipofectamine 2000 (Thermo-Fisher) into 1.87 mL of Opti-MEM, and then adding the diluted DNA solution into the diluted Lipofectamine 2000 solution and incubating at room temperature for 15-20 minutes. The mixture is further diluted with 10 mL of a solution comprised of DMEM, 10% cs-FBS, and 1% P/S immediately prior to transferring to the cells. The maintenance culture media is aspirated from the cells and the final transfection mixture is added before the cells are incubated overnight at 37° C. in a humidified 5% CO2 atmosphere. This protocol can be scaled up, and the transiently transfected cells can be cryopreserved in an assay-ready format.
For compound testing, 100 nL of the compounds (serial dilutions in DMSO) are dispensed with an Echo acoustic dispenser (Labcyte) into the wells of a Corning/Costar clear bottom 384-well white plate. The transfected cells are harvested, counted, and diluted such that 10-25,000 cells in 25 μL are plated into each well of the 384-well compound assay plate. The compound-treated cells are incubated overnight at 37° C. in a humidified 5% CO2 atmosphere. The next morning 25 μL of Steady-Glo (Promega) are added to each well of the plate, the mixture is incubated for 15 min. with shaking, and luminescence is measured on an Envision (Perkin Elmer) plate reader. Background counts from cells treated with DMSO alone are subtracted from all raw counts, and the corrected values are converted to a percentage of the control response attained with 8 μM GW-4064.

FXR, sequence (Q96RI1 262-486): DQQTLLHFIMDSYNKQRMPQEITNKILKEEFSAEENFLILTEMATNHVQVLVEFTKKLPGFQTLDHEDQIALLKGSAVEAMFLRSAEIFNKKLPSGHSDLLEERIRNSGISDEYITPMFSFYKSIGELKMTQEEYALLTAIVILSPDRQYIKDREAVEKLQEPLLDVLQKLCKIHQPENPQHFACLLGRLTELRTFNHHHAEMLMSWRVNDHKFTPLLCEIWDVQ

SMILES	pEC50
CCOc1nc(C(=O)O)cc2ccc(/C=C/C34CCC(OCc5c(-c6c(Cl)cncc6Cl)noc5C5CC5)(CC3)CC4)cc12 [Example 604]	7.36
O=C(O)Cc1ccc(/C=C/C23CCC(OCc4c(-c5c(Cl)cncc5Cl)noc4C4CC4)(CC2)CC3)c(C(F)(F)F)c1 [Example 621]	7.37
O=C(O)COc1ccc(C#CC23CCC(OCc4c(-c5c(Cl)cncc5Cl)noc4C4CC4)(CC2)CC3)c(F)c1 [Example 554]	5.50
O=C(O)c1cc(OC2COC2)c2nc(C34CCC(OCc5c(-c6c(Cl)cncc6Cl)noc5C5CC5)(CC3)CC4)ccc2c1 [Example 544]	6.93
O=C(O)c1cnc(C#CC23CCC(OCc4c(-c5c(Cl)cncc5Cl)noc4C4CC4)(CC2)CC3)cn1 [Example 542]	5.31
O=C(O)c1c(F)c(OCC23CCC(OCc4c(-c5c(Cl)cncc5Cl)noc4C4CC4)(CC2)CC3)nn1CC1CC1 [Example 535]	7.30
CC(F)(F)c1cc(OCC23CCC(OCc4c(-c5c(Cl)cncc5Cl)noc4C4CC4)(CC2)CC3)cnc1C(=O)O [Example 536]	7.26
O=C(O)c1csc(-c2ccc(/C=C/C34CCC(OCc5c(-c6c(Cl)cncc6Cl)noc5C5CC5)(CC3)CC4)cc2)n1 [Example 628]	7.14
Cn1nc(NCC23CCC(OCc4c(-c5c(Cl)cccc5Cl)noc4C4CC4)(CC2)CC3)cc1C(=O)O [Example 581]	6.58
CCc1cc(OCC23CCC(OCc4c(-c5c(Cl)cncc5Cl)noc4C4CC4)(CC2)CC3)nn1CC(=O)O [Example 524]	5.82
Clc1cncc(Cl)c1-c1noc(C2CC2)c1COC12CCC(/C=C/c3ccc(Cc4nn[nH]n4)cc3)(CC1)CC2 [Example 619]	6.67
COc1ncc(C(=O)O)cc1C#CC12CCC(OCc3c(-c4c(Cl)cncc4Cl)noc3C3CC3)(CC1)CC2 [Example 563]	7.80
COCCCOc1cc(C(=O)O)cc2ccc(C34CCC(OCc5c(-c6c(Cl)cncc6Cl)noc5C5CC5)(CC3)CC4)nc12 [Example 556]	7.52
Cc1nc(NCC23CCC(OCc4c(-c5c(Cl)cccc5Cl)noc4C4CC4)(CC2)CC3)sc1CC(=O)O [Example 577]	6.07
O=C(O)c1cc2ccc(Cl)cc2c(C#CC23CCC(OCc4c(-c5c(Cl)cncc5Cl)noc4C4CC4)(CC2)CC3)n1 [Example 547]	6.60
O=C(O)c1cc2ccc(/C=C/C34CCC(OCc5c(-c6c(Cl)cncc6Cl)noc5C5CC5)(CC3)CC4)cc2c(OC2CCC2)n1 [Example 613]	6.53
O=C(O)COCc1ccc(C#CC23CCC(OCc4c(-c5c(Cl)cncc5Cl)noc4C4CC4)(CC2)CC3)cc1 [Example 566]	6.71
O=C(O)c1cnc2ccc(/C=C/C34CCC(OCc5c(-c6c(Cl)cncc6Cl)noc5C5CC5)(CC3)CC4)cn12 [Example 593]	5.95
O=C(O)c1cc(C(F)(F)F)cn2c(C#CC34CCC(OCc5c(-c6c(Cl)cncc6Cl)noc5C5CC5)(CC3)CC4)cnc12 [Example 545]	8.30
CCOc1nc(C(=O)O)cc2ccc(OCC34CCC(OCc5c(-c6c(Cl)cncc6Cl)noc5C5CC5)(CC3)CC4)cc12 [Example 575]	7.74
O=C(O)c1cc2ccc(C#CC34CCC(OCc5c(-c6c(Cl)cncc6Cl)noc5C5CC5)(CC3)CC4)cc2c(N2CC(F)C2)n1 [Example 553]	7.92
O=C(O)CCc1cc(/C=C/C23CCC(OCc4c(-c5c(Cl)cncc5Cl)noc4C4CC4)(CC2)CC3)ccc1OCC(F)F [Example 624]	6.36
